The target in assay [1] is T1, recombinant H1 receptor (human) (Homo sapiens, UniProt P35367).
T1 construct: expressed in transfected cells; host or cells: HEK-293
As to the kind of experiment: H1 competition binding assay ([3H]-Pyrilamine, SPA). As to the method: [^3H]-Pyrilamine binding experiments are carried out in SPA (scintillation proximity assay) 96-well format. Membranes used in this assay are prepared from HEK-293 cells stably expressing recombinant H1 receptor (human). The incubation is initiated by the addition of a mixture of WGA PVT SPA beads (1 mg/well, Perkin Elmer (MA, USA) RPNQ0001) and 3 μg membranes to assay buffer (67 mM Tris; pH 7.6) containing 3.5 nM [^3H]-Pyrilamine and varying concentrations of the test compound (10 point concentration response curves). Non-specific binding is determined in the presence of 10 μM Triprolidine. Samples are incubated for 4 hr. at room temperature (22° C.) and then read in a Microbeta® Trilux.
Binding data analysis Curves are evaluated using a 4-parameter logistic nonlinear equation to obtain the concentration of competitor causing 50% inhibition of radioligand binding (IC50). Equilibrium dissociation constants (Ki) are calculated according to the equation Ki=IC50/(1+L/Kd), where L equals the concentration of radioligand used in the experiment and Kd equals the equilibrium dissociation constant of the radioligand for the receptor, determined from standard saturation analysis or homologous competition experiments. Reported values for Ki, where n values are indicated, are shown as geometric mean±the standard error of the mean (SEM), with the number of replicate determinations indicated by n. […]

The next assay addresses Adrenergic alpha2A (Homo sapiens, UniProt P08913). Briefly: Adrenergic alpha2A binding. The source says: Further, the compounds of the invention may be tested in binding assays and functional activity assays by well known methods for other physiologically important receptors such as, but not limited to, the hERG channel, other serotonin receptors (specifically 5-HT1B and 5-HT1D receptors, lack of agonist activity at 5-HT2B receptors, 5-HT2C, 5-HT5, 5-HT6, and 5-HT7 receptors), dopaminergic receptors (specifically D1, D2, and D3), GABAA receptors, adrenergic receptors and monoamine transporters.

pKi: −log10 of the molar value. Where a name gives a salt, the structure may show the parent alone.

We go through 1 compound from patent US9562057B2, “(Thieno[2,3-b][1,5]benzoxazepin-4-yl)piperazin-1-yl compounds as dual activity H1 inverse agonists/5-HT2A antagonists” (Eli Lilly and Company, priority 2013, dated 2017).

T1 sequence (P35367 whole entry): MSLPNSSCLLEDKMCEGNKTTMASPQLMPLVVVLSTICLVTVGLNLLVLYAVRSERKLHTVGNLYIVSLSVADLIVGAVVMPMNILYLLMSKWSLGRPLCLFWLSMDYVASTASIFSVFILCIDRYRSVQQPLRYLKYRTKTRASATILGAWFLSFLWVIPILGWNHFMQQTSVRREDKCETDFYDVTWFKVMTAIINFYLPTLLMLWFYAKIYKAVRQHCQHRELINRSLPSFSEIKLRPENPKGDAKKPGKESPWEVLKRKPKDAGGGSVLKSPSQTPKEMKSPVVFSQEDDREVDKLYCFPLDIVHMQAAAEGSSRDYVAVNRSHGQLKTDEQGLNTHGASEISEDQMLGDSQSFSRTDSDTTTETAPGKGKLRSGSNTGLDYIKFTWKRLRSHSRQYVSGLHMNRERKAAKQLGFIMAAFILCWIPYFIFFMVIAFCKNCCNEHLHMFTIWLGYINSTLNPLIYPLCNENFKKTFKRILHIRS
Chain of Adrenergic alpha2A (P08913 whole entry): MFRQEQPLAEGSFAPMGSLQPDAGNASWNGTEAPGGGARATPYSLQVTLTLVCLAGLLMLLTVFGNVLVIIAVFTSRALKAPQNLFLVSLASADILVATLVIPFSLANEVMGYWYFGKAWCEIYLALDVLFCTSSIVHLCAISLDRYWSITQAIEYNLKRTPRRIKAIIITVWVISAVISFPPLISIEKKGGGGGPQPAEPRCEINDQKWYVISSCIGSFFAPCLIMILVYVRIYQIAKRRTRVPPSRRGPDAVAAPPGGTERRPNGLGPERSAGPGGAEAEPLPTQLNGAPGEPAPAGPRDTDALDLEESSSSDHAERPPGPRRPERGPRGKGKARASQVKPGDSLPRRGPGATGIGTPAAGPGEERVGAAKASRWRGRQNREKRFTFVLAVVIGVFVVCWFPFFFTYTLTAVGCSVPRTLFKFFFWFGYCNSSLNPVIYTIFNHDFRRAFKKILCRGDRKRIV

Consider `Cc1ccc2c(c1)Oc1sc(C3CC3)cc1C(N1CCN(CC(C)(C)C(=O)O)CC1)=N2` [Example 2, 3-[4-(2-Cyclopropyl-8-methyl-thieno[2,3-b][1,5]benzoxazepin-4-yl)piperazin-1-yl]-2,2-dimethyl-propanoic acid dihydrochloride], for which the figures for the negative logarithm of the Ki (pKi) (in assay [1]; at Adrenergic alpha2A) were 7.36 and 5.23, respectively.
